Laboratory results: patent US20100086513A1, “Method for Effecting Antimicrobial Activity Using Polyamine Analogues” (priority 2008, published 2010)
Converted amounts (≈) assume the structure as drawn.

Legend:
Y. pestis KIM6+ [1] = assay type: cell-based, Yersinia pestis
[2] = system: E. coli K12 cells + pBR322; assay type: cell-based, Escherichia coli
Y. pestis KIM6+ [3] = assay type: cell-based, Yersinia pestis; remark: listed apart in the source
E. coli K12 = assay type: cell-based, Escherichia coli

## N=C(NCCCNCCCCCCCNCCCNC(=N)NC(=N)NCCC(c1ccccc1)c1ccccc1)NC(=N)NCCC(c1ccccc1)c1ccccc1 [XBI-54-13B]
Y. pestis KIM6+ [1]
  MIC: 1.56 µg/mL (≈ 1.95 µM)
[2]
  release of β-lactamase (Nitrocefin absorption at 486 nm): quickly causes a release of β-lactamase

## CC[C@H](C)[C@H](NC(=O)CN)C(=O)NCC(=O)N[C@@H](C)C(=O)N[C@H](C(=O)N[C@@H](CC(C)C)C(=O)N[C@@H](CCCCN)C(=O)N[C@H](C(=O)N[C@@H](CC(C)C)C(=O)N[C@H](C(=O)N[C@H](C(=O)NCC(=O)N[C@@H](CC(C)C)C(=O)N1CCC[C@H]1C(=O)N[C@@H](C)C(=O)N[C@@H](CC(C)C)C(=O)N[C@H](C(=O)N[C@@H](CO)C(=O)N[C@@H](Cc1c[nH]c2ccccc12)C(=O)N[C@H](C(=O)N[C@@H](CCCCN)C(=O)N[C@@H](CCCNC(=N)N)C(=O)N[C@@H](CCCCN)C(=O)N[C@@H](CCCNC(=N)N)C(=O)N[C@@H](CCC(N)=O)C(=O)N[C@@H](CCC(N)=O)C(N)=O)[C@@H](C)CC)[C@@H](C)CC)[C@@H](C)O)[C@@H](C)O)C(C)C)C(C)C [mellitin]
[2]
  release of β-lactamase (Nitrocefin absorption at 486 nm): a reaction of Nitrocefin to β-lactamase occurs almost immediately

## NCCCCN [putrescine]
Y. pestis KIM6+ [3]
  uptake of [14C] putrescine: ability to transport significant amounts
E. coli K12
  uptake of [14C] putrescine: ability to transport significant amounts

## NCCCCNCCCN [spermidine]
Y. pestis KIM6+ [3]
  transport of [14C] spermidine: effectively unable to transport
E. coli K12
  transport of [14C] spermidine: able to transport a significant amount
